The text below walks through data of PMC4945070 (PLoS Neglected Tropical Diseases, 2016).

Experiment [1] concerns the target H. contortus L-AChR1.1 (UNC-63, UNC-38, ACR-8, UNC-29.1) (Haemonchus contortus, UniProt A9XX24+D6MYE9+D6MYF3+D6MYF4). The experiment is described as follows: cell-based. More on the design: Emax: dose or concentration left out as unconfirmed. Here is the method:
(§1) The H. contortus cDNAs encoding AChR subunits and ancillary proteins were available as expression clones in the pTB207 vector and C. elegans expression clones were a gift from T. Boulin.. cRNA synthesis of each construct required NheI-linearized templates and was performed with the mMessage mMachine T7 Kit (Ambion) according to the manufacturer’s instructions. cRNAs were precipitated with lithium chloride and redissolved in RNAse-free water and stored at -80°C. cRNA concentration was determined using a Nanodrop spectrophotometer (Thermo Scientific) and cRNA purity and integrity was assessed by electrophoresis through a 1% gel stained with GreenGlo nucleic acid dye (Denville Scientific Inc.).
(§2) Oocytes were collected from mature Xenopus females according to standard procedures and incubated at 19°C in a ND96 solution (NaCl 96 mM, KCl 2 mM, CaCl2 1.8 mM, MgCl2 1 mM, and HEPES 5 mM, pH 7.3 supplemented with sodium pyruvate 2.5 mM). Defolliculated oocytes were injected into the animal pole with approximately 36 nL of a cRNA mix containing 50 ng/μL of each cRNA in RNAse-free water using the Nanoject system (Drummond Scientific, Broomall, PA). Negative controls consisted of oocytes injected with RNAse-free water. Oocytes were then stored at 19°C in ND96 for 5 days to allow receptor expression. In order to prevent activation of endogenous calcium-activated chloride channels, the oocytes were incubated in ND96 supplemented with 100 μM of the calcium chelator BAPTA-AM, 4h prior to recording.
(§3) Two-electrode voltage-clamp experiments were carried out using a perfusion system connected to a flat RC-1Z chamber (Harvard Apparatus). Glass electrodes were filled with 3M KCl and checked for resistance between 1 and 3 MΩ. The oocyte bath was connected to the ground through a 3 M KCl agar bridge. Agonist and antagonists were dissolved or diluted in recording solution (100 mM NaCl, 2.5 mM KCl, 1 mM CaCl2, 5 mM HEPES, pH 7.3). All measurements were performed using a Geneclamp 500B amplifier and Digidata 1322M (Axon Instruments), oocytes were voltage-clamped at -60 mV. Drug solutions were applied to oocytes by gravity flow using perfusion syringes directly connected to the chamber. Data were collected and analyzed using Clampex 9.2 and Clampfit 9.2 (Axon Instruments, Sunnyvale, CA, USA). Traces were filtered at 30 Hz and analyzed using GraphPad Prism 5.0 software (GraphPad Software, San Diego, CA, USA). Final results are presented as means ± SE.

Experiment [2] deals with H. contortus L-AChR1.3 (UNC-63, UNC-38, ACR-8, UNC-29.3) (Haemonchus contortus, UniProt A9XX24+D6MYF1+D6MYF3+D6MYF4). The experiment is described as follows: cell-based. Also on record: Emax: dose or concentration left out as unconfirmed. Here is the method:
as §1, §2, §3

In experiment [3] the target is H. contortus L-AChR1.4 (UNC-63, UNC-38, ACR-8, UNC-29.4) (Haemonchus contortus, UniProt A9XX24+D6MYF2+D6MYF3+D6MYF4). Briefly: cell-based. The class given is cell-based. Also on record: Emax: dose or concentration left out as unconfirmed. Here is the method:
as §1, §2, §3

The subject of experiment [4] is H. contortus L-AChR1.2 (UNC-63, UNC-38, ACR-8, UNC-29.2). The class given is cell-based, Haemonchus contortus. Conditions: for current in response to 100 μM perfusion: UNC-29.1 replaced by UNC-29.2, n = 18. As for the experimental part:
as §1, §2
Two-electrode voltage-clamp experiments were carried out using a perfusion system connected to a flat RC-1Z chamber (Harvard Apparatus). Glass electrodes were filled with 3M KCl and checked for resistance between 1 and 3 MΩ. The oocyte bath was connected to the ground through a 3 M KCl agar bridge. […] Data were collected and analyzed using Clampex 9.2 and Clampfit 9.2 (Axon Instruments, Sunnyvale, CA, USA). Traces were filtered at 30 Hz and analyzed using GraphPad Prism 5.0 software (GraphPad Software, San Diego, CA, USA). […]

In experiment [5] the target is H. contortus L-AChR1.1 with added UNC-29.2 (Haemonchus contortus, UniProt A9XX24+D6MYE9+D6MYF3+D6MYF4). Briefly: Two-electrode voltage clamp of L-AChR1.1 supplemented with unc-29.2 cRNA in Xenopus oocytes. The class given is cell-based. Conditions: for effect of unc-29.2 cRNA on the pharmacological response: 0.2, 1, 5 times unc-29.2 cRNA relative to UNC-29.1.
Description: Typically, such a situation can be identified by a change in the pharmacological properties of a receptor with addition of the second subunit. To address this, we examined the possibility that UNC-29.2 may interfere with or modify the properties of the reconstituted L-AChR1.1. We prepared oocytes injected with cRNAs to express the H. contortus L-AChR1.1 and supplemented this with an increasing (0.2, 1, 5 times) concentration of cRNA for UNC-29.2 relative to UNC-29.1.
as §1, §2, §3

Experiment [6] concerns C. elegans L-AChR subunits (Cel-unc-63, Cel-unc-38, Cel-lev-8, Cel-lev-1) with Hco-unc-29 paralog. The experiment is described as follows: Two-electrode voltage clamp of C. elegans / H. contortus AChR subunit admixtures in Xenopus oocytes. The class given is cell-based.
Description: To confirm that the LEV sensitivity rescue could be due to the functional incorporation of parasite protein into the C. elegans L-AChR, we injected into Xenopus oocytes, cRNA admixtures of the four essential C. elegans L-AChR subunits: Cel-unc-63, Cel-unc-38, Cel-lev-8 and Cel-lev-1, the three H. contortus accessory proteins: ric-3, unc-50 and unc-74, and the Cel-unc-29 or each Hco-unc-29 paralog in turn. Reconstitution of the C. elegans L-AChR with Cel-unc-29 produced functional channels as previously described, confirming that the H. contortus accessory proteins are functional between species. Omitting unc-29 produced no response, so any current produced using parasite genes must involve their incorporation into a functional L-AChR. […] UNC-29.1 produced an average of 500 μA currents, while the other three produced reproducible currents below 200 nA with UNC-29.2 producing the smallest response on average (S1 Fig).
as §1, with “Inc.). […]” for “Inc.).”
Two-electrode voltage-clamp experiments were carried out using a perfusion system connected to a flat RC-1Z chamber (Harvard Apparatus). […] Data were collected and analyzed using Clampex 9.2 and Clampfit 9.2 (Axon Instruments, Sunnyvale, CA, USA). Traces were filtered at 30 Hz and analyzed using GraphPad Prism 5.0 software (GraphPad Software, San Diego, CA, USA). […]

The test system of the next experiment is C. elegans. Conditions: 200 μM LEV. As for the experimental part: The Cel-unc-29, unc-29.1, unc-29.2, unc-29.3, unc-29.4 cDNA sequences were amplified by PCR using primers containing restriction site inserted with restriction enzymes in the plasmid backbone (Addgene L2534) containing the myo-3 promoter. Strains used in these study were the wild-type Bristol isolate N2 and the LEV resistant isolate CB1072: unc-29 (e1072). Worms were grown on Escherichia coli OP50 seeded NGM (Nematode Growth Medium) plates at 20°C and maintained using standard culture methods. Hermaphrodite young adult C. elegans were transformed by microinjection of plasmids into the gonads. […] Successful transformation was determined by the observation of fluorescence of the selection marker in the two targeted neurones of the head region. Only worms carrying the selection marker were used for the behavioural and pharmacological analysis.
Three day old adult fluorescent worms were transferred onto unseeded NGM plates, equilibrated at 20°C, containing 200 μM LEV. Drug induced paralysis was determined by visual inspection every 15 min. Worms were defined as paralyzed if no movement was observed within five seconds after prodding the tail with a hair tip. Statistics. Experimental data are shown as mean ± S.D. Statistical comparisons between the unc-29 (e1072) mutant strain and the transformed lines were done using two-way ANOVA with Bonferroni’s multiple comparison post test. A level of p < 0.05 was considered significant.

Values joined by “and” are separate entries in the source; they are usually repeats but may differ in a detail not shown here. Equal entries are not always repeated. “Also recorded” adds a separate entry of the source. Structures can show the parent of a compound that is named as a salt. Where two headings read alike, the source gives them in different places.

Turning to `CC(=O)OCC[N+](C)(C)C` [ACh, Acetylcholine chloride], the “Max ACh Current” value in experiment [1] (L-AChR1.1 (Hco-UNC-29.1)) is about 1.5 μA; in experiment [2] (L-AChR1.3 (Hco-UNC-29.3)) it was about 1.5 μA; in experiment [3] (L-AChR1.4 (Hco-UNC-29.4)), about 500 nA; in experiment [4] (receptor with Hco-UNC-29.2), 0 μA. For the same molecule, the Hill is on record as 0.88 ± 0.05 in experiment [1] (L-AChR1.1, Hill coefficient of concentration-response curve); 0.89 ± 0.05 in experiment [2] (L-AChR1.3, Hill coefficient of concentration-response curve); 1.12 ± 0.04 in experiment [3] (L-AChR1.4, Hill coefficient of concentration-response curve); 0.91 ± 0.08 in experiment [5] (29.1 : 29.2 cRNA 1 : 0.2); 0.96 ± 0.13 in experiment [5] (29.1 : 29.2 cRNA 1 : 1); 1.09 ± 0.10 in experiment [5] (29.1 : 29.2 cRNA 1 : 5). The Emax at 100 µM turned out to be 100% in experiment [1] (L-AChR1.1, agonists at 100 μM, normalized to 100 μM acetylcholine, read-out: Max. Current ± S.E.); 100% in experiment [2] (L-AChR1.3, agonists at 100 μM, normalized to 100 μM acetylcholine, read-out: Max. Current ± S.E.); 100% in experiment [3] (L-AChR1.4, agonists at 100 μM, normalized to 100 μM acetylcholine, read-out: Max. Current ± S.E.). For the same molecule, the “current in response to 100 μM perfusion” value in experiment [4] is listed as “failed to produce any detectable current”. The “effect of unc-29.2 cRNA on the pharmacological response” value in experiment [5] is reported as “no effect”. Besides, in experiment [6] (admixture with UNC-29.1), the “average current on perfusion of 100 μM ACh” value was 500 μA. Moreover, the “current on perfusion of 100 μM ACh” value in experiment [6] (admixtures with the other three paralogs (UNC-29.2, UNC-29.3, UNC-29.4)) is reported as “below 200 nA”.
As usually defined, the EC50 is the concentration giving half of the maximal effect. Take `c1ccc([C@H]2CN3CCSC3=N2)cc1` [LEV, (-)-tetramisole hydrochloride]: the Hill in experiment [1] turned out to be 0.84 ± 0.05; in experiment [2], 1.13 ± 0.09; in experiment [3], 0.90 ± 0.12; in experiment [5] (29.1 : 29.2 cRNA 1 : 0.2), 0.69 ± 0.09; in experiment [5] (29.1 : 29.2 cRNA 1 : 1) it was 0.71 ± 0.13; in experiment [5] (29.1 : 29.2 cRNA 1 : 5), 0.77 ± 0.13. Also, the “Relative response (LEV versus ACh)” value was “superagonist; also recorded: LEV > ACh” in experiment [1], “partial agonist; also recorded: LEV < ACh” in experiment [2] and “LEV = ACh” in experiment [3]. Further, the concentration giving a half-maximal response (EC50) in experiment [1] (EC50) was 4.9 µM and 4.91 µM; in experiment [2] it was 1.15 ± 0.08 µM; in experiment [3], 2.48 ± 0.35 µM; in experiment [5] (29.1 : 29.2 cRNA 1 : 0.2), 3.05 ± 0.44 µM; in experiment [5] (29.1 : 29.2 cRNA 1 : 1), 2.41 ± 0.08 µM; in experiment [5] (29.1 : 29.2 cRNA 1 : 5), 3.7 ± 0.35 µM. In addition, the Emax at 100 µM in experiment [1] (read-out: LEV current, % of ACh response) came out at 125%; in experiment [2] (read-out: LEV current, % of the ACh current), 65.2 ± 9.9%. Further, the Emax in experiment [1] (read-out: Max. Current ± S.E.) was determined as 125 ± 3.76%; in experiment [2] (read-out: Max. Current ± S.E.) it was 65.2 ± 3.5%; in experiment [3] (read-out: Max. Current ± S.E.), 94.7 ± 2.93%. Further, in experiment [4], the “current in response to 100 μM perfusion” value is “failed to produce any detectable current”. In addition, in experiment [5], the “effect of unc-29.2 cRNA on the pharmacological response” value was “no effect”. The “current on perfusion of 100 μM LEV relative to the ACh response” value in experiment [6] (each Hco-unc-29 paralog) is recorded as “comparable between subunit copies”. Besides, the “paralysis on exposure to LEV” value in the experiment on C. elegans (mutant unc-29(e1072) (CB1072), two hours) is given as “barely affected”; with C. elegans (unc-29(e1072) transfected with Cel-unc-29), “complete rescue of LEV sensitivity”; with C. elegans (unc-29(e1072) transfected with each of the four H. contortus unc-29 copies) it was “paralyzed after two hours”; with C. elegans (wild-type N2 worms) it was “rapid paralysis that was complete after an hour”.
